# Measured values reported in ChEMBL document CHEMBL3639029, “Pyrrolopyrimidine compounds as inhibitors of CDK4/6” (2015).
# pIC50: −log10 of the molar value.
# Assays:
# [1] = molecular target: Cyclin-dependent kinase 1 (Homo sapiens, UniProt P06493); experiment: IMAP-FP (Molecular Devices Trade Mark Technology) Endpoint Assay: A 384-well microtiter IMAP-FP (Molecular Devices Trade Mark Technology) endpoint assay was used for CDK1/cyclin B kinase activity measurements. The same assay was used for IC50 determination of small molecule inhibitors. In general, the kinase reactions were carried out in 20 uL volumes in the reaction solution, which is composed of 2 uL compound (in 20% DMSO), 8 uL CDK1/cyclin B in the 1x Reaction Buffer (Molecular Devices, Cat. No. R8139), 10 uL substrate mixture of Tamra Histone-H1 peptide (Molecular Devices, Cat. No. R7384) and ATP (Amersham Pharmacia, Cat. No. 27-2056-01) in the 1x Reaction Buffer with 1 mM DTT freshly added. The final reaction mixture contains compound (inhibitor) with the concentration varying from 0.005-10 uM, 2% DMSO, 0.25 nM CDK1/cyclin B, 100 nM Tamra Histone-H1 peptide, and 20 uM ATP.All reactions were run at room temperature in black 384-well flat-bottom Costar plates (Corning, Cat. No. 3710) for 120 min then were quenched.
# [2] = molecular target: Cyclin-dependent kinase 4 (Homo sapiens, UniProt P11802); experiment: Biological Assay: An assay for monitoring CDK4/cyclin D1-catalyzed phosphorylation of pRb at the Ser780 site was performed using TR-FRET in a 384-well format, and was used for IC50 determination and kinetic analysis. The reaction was carried out in a 30 uL volume containing 0.3 nM CDK4/cyclin D1, 150 nM biotin-pRb (773-924), 3 uM ATP, and 1.3% DMSO (or compound in DMSO) in the assay buffer (50 mM HEPES-Na, pH 7.5; 5 mM MgCl2, 1 mM DTT, 0.02% Tween-20, and 0.05% BSA). 3 uM ATP was added last to initiate the reaction. The reaction was quenched with 10 uL of 240 mM EDTA-Na (pH 8.0) after 60 min incubation at 22 C. The signal was developed by the addition of 40 uL detection solution containing 40 nM SA-APC, 143 ng/mL anti-phospho-pRb (S780) antibody, and 1 nM Eu-W1024 anti-rabbit IgG antibody in the detection buffer (50 mM HEPES-Na, pH 7.5, 60 mM EDTA-Na, pH 8.0, 0.05% BSA, and 0.1% Triton X-100). After 60 min incubation in the dark, the plate was read on Envision.
# Cyclin-dependent kinase 4, sequence (P11802 whole entry): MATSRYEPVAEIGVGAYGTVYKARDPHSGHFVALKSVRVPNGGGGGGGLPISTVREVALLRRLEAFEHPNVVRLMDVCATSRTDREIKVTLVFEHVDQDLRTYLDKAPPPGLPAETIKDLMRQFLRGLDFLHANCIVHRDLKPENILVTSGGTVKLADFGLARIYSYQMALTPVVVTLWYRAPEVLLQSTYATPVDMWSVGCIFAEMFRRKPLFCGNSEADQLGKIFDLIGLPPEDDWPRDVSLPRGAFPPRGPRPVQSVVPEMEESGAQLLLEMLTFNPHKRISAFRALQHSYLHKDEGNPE
# Cyclin-dependent kinase 1, sequence (P06493 whole entry): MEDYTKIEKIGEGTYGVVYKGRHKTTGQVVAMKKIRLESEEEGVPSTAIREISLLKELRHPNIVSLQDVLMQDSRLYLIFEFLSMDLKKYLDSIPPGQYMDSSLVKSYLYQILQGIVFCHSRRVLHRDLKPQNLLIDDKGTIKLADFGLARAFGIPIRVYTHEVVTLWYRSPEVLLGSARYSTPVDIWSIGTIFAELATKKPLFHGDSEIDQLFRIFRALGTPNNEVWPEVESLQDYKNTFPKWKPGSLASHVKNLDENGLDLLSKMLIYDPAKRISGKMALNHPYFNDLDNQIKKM
smiles,measurement,setting,value
CN(C)C(=O)c1cc2cnc(Nc3ccc(N4CC5CCC(CC4=O)N5)cn3)nc2n1-c1ccc(C(C)(C)C#N)cc1 (configuration not stated),pIC50,[1],< 4.82
same,pIC50,[2],8.30
